Laboratory results: ChEMBL document CHEMBL1201862, “PubChem BioAssay data set” (2004)
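Cells were grown in 96-well plates and exposed to each compound for 48 hours at five concentrations; endpoints were interpolated linearly between bracketing concentrations, or set to the highest concentration if not reached. The concentration for 50% growth inhibition is given as GI50.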 The source made the active and inactive calls. No stated cut-off is given here; in the data, active = GI50 up to about 1.1 µM and inactive = higher.

What was measured:
Test in all cases: NCI tumour cell line growth inhibition, 48 h
[1] = tested on: HCC 2998
[2] = tested on: SF-268
[3] = tested on: HCT-116
[4] = tested on: SF-539
[5] = tested on: BT-549
[6] = tested on: SR
[7] = tested on: MDA-MB-435
[8] = tested on: MCF7
[9] = tested on: RPMI-8226
[10] = tested on: A498
[11] = tested on: MDA-MB-231
[12] = tested on: UACC-257
[13] = tested on: SW-620
[14] = tested on: MDA-N
[15] = tested on: OVCAR-4
[16] = tested on: SK-OV-3
[17] = tested on: HCT-15
[18] = tested on: M14
[19] = tested on: SNB-75

Compound	GI50 [1]	GI50 [2]	GI50 [3]	GI50 [4]	GI50 [5]	GI50 [6]	GI50 [7]	GI50 [8]	GI50 [9]	GI50 [10]	GI50 [11]	GI50 [12]	GI50 [13]	GI50 [14]	GI50 [15]	GI50 [16]	GI50 [17] [µM]	GI50 [18]	GI50 [19]
CSc1ncnc2c1cnn2Cc1cn(COCC(O)CO)nn1 (configuration not stated)	> 100 µM (inactive)	22.8 µM (inactive)	> 100 µM (inactive)	> 100 µM (inactive)	> 100 µM (inactive)	> 100 µM (inactive)	> 100 µM (inactive)	> 100 µM (inactive)	> 100 µM (inactive)	> 100 µM (inactive)	> 100 µM (inactive)	> 100 µM (inactive)	> 100 µM (inactive)	> 100 µM (inactive)	> 100 µM (inactive)	> 100 µM (inactive)	> 100	> 100 µM (inactive)	–
CC(C)=CCc1c(OC(=O)c2c(C)cc(O)cc2O)cc(CO)c(CO)c1O	16.4 µM (inactive)	26.7 µM (inactive)	20.9 µM (inactive)	18.6 µM (inactive)	18.7 µM (inactive)	20.7 µM (inactive)	17.7 µM (inactive)	24 µM (inactive)	–	17.3 µM (inactive)	15.5 µM (inactive)	29.9 µM (inactive)	> 10 µM (inactive)	19.1 µM (inactive)	16 µM (inactive)	16.2 µM (inactive)	17.7	20.8 µM (inactive)	12.6 µM (inactive)
Cc1nc(C)c(N2CCN(Cc3ccccc3)CC2)c(O)n1	> 100 µM (inactive)	> 100 µM (inactive)	> 100 µM (inactive)	> 100 µM (inactive)	> 100 µM (inactive)	> 100 µM (inactive)	> 100 µM (inactive)	> 100 µM (inactive)	> 100 µM (inactive)	> 100 µM (inactive)	> 100 µM (inactive)	> 100 µM (inactive)	> 100 µM (inactive)	> 100 µM (inactive)	> 100 µM (inactive)	> 100 µM (inactive)	> 100	> 100 µM (inactive)	–
Cc1c(O)c(OC2OC(CO)C(O)C(O)C2O)cc2c1CC[C@@H]1C2(C)C(=O)C[C@]2(C)[C@@H]([C@@](C)(O)C(O)/C=C/C(C)(C)O)[C@H](O)C[C@@]12C (some centres not stated)	> 100 µM (inactive)	> 100 µM (inactive)	> 100 µM (inactive)	> 100 µM (inactive)	> 100 µM (inactive)	> 100 µM (inactive)	> 100 µM (inactive)	> 100 µM (inactive)	–	> 100 µM (inactive)	> 100 µM (inactive)	> 100 µM (inactive)	> 100 µM (inactive)	> 100 µM (inactive)	> 100 µM (inactive)	> 100 µM (inactive)	> 100	> 100 µM (inactive)	> 100 µM (inactive)
COC(=O)C(COC(=O)/C=C/c1ccc(OC(C)=O)c(OC(C)=O)c1)OC(=O)/C=C/c1ccc(OC(C)=O)c(OC(C)=O)c1 (configuration not stated)	17.5 µM (inactive)	12.4 µM (inactive)	4.14 µM (inactive)	10.8 µM (inactive)	15.1 µM (inactive)	3.01 µM (inactive)	11 µM (inactive)	6.61 µM (inactive)	11.6 µM (inactive)	16.5 µM (inactive)	6.7 µM (inactive)	15.7 µM (inactive)	6.27 µM (inactive)	9.73 µM (inactive)	15.3 µM (inactive)	–	5.38	7.8 µM (inactive)	–
Cc1cnc2nc(-c3sccc3C)cc(O)c2c1	6.07 µM (inactive)	10.9 µM (inactive)	3.33 µM (inactive)	5.81 µM (inactive)	9.42 µM (inactive)	0.471 µM (active)	0.342 µM (active)	2.84 µM (inactive)	–	23.4 µM (inactive)	18.1 µM (inactive)	8.38 µM (inactive)	1.91 µM (inactive)	0.361 µM (active)	> 100 µM (inactive)	4.03 µM (inactive)	1.57	2.25 µM (inactive)	4.32 µM (inactive)
